The kinase profiling compilation of Christmann-Franck et al. (2016)

Experiments:
Assay in all cases: KINOMEscan competition binding
Details in all cases: compound 10.0 µM
ADCK4 (human) = ADCK4 (human) (UniProt Q96D53)
BMPR1B (human) = BMPR1B (human) (UniProt O00238)
CAMK1G (human) = CAMK1G (human) (UniProt Q96NX5)
CDK15 (human) = CDK15 (human) (UniProt Q96Q40)
CDK8 (human) = CDK8 (human) (UniProt P49336)
CDK9 (human) = CDK9 (human) (UniProt P50750)
CHEK2 (human) = CHEK2 (human) (UniProt O96017)
CLK4 (human) = CLK4 (human) (UniProt Q9HAZ1)
DAPK3 (human) = DAPK3 (human) (UniProt O43293)
FER (human) = FER (human) (UniProt P16591)
FGR (human) = FGR (human) (UniProt P09769)
FLT3 (human) = FLT3 (human) (UniProt P36888)
[1] = test system: FLT3 (human), P36888 [N841I]
LCK (human) = LCK (human) (UniProt P06239)
MAP2K1 (human) = MAP2K1 (human) (UniProt Q02750)
MAP2K4 (human) = MAP2K4 (human) (UniProt P45985)
MAP4K3 (human) = MAP4K3 (human) (UniProt Q8IVH8)
MAPK4 (human) = MAPK4 (human) (UniProt P31152)
MAPK7 (human) = MAPK7 (human) (UniProt Q13164)
MKNK1 (human) = MKNK1 (human) (UniProt Q9BUB5)
MYLK (human) = MYLK (human) (UniProt Q15746)
NEK5 (human) = NEK5 (human) (UniProt Q6P3R8)
NTRK1 (human) = NTRK1 (human) (UniProt P04629)
PDGFRA (human) = PDGFRA (human) (UniProt P16234)
PHKG2 (human) = PHKG2 (human) (UniProt P15735)
PIM2 (human) = PIM2 (human) (UniProt Q9P1W9)
PIP5K1A (human) = PIP5K1A (human) (UniProt Q99755)
PKMYT1 (human) = PKMYT1 (human) (UniProt Q99640)
PLK1 (human) = PLK1 (human) (UniProt P53350)
PRKD2 (human) = PRKD2 (human) (UniProt Q9BZL6)
PRKG1 (human) = PRKG1 (human) (UniProt Q13976)
RET (human) = RET (human) (UniProt P07949)
SRMS (human) = SRMS (human) (UniProt Q9H3Y6)
STK16 (human) = STK16 (human) (UniProt O75716)
STK32B (human) = STK32B (human) (UniProt Q9NY57)
STK32C (human) = STK32C (human) (UniProt Q86UX6)
TEK (human) = TEK (human) (UniProt Q02763)
TESK1 (human) = TESK1 (human) (UniProt Q15569)
TGFBR1 (human) = TGFBR1 (human) (UniProt P36897)
TLK2 (human) = TLK2 (human) (UniProt Q86UE8)
TXK (human) = TXK (human) (UniProt P42681)

TLK2 (human), sequence (Q86UE8 whole entry, looked up): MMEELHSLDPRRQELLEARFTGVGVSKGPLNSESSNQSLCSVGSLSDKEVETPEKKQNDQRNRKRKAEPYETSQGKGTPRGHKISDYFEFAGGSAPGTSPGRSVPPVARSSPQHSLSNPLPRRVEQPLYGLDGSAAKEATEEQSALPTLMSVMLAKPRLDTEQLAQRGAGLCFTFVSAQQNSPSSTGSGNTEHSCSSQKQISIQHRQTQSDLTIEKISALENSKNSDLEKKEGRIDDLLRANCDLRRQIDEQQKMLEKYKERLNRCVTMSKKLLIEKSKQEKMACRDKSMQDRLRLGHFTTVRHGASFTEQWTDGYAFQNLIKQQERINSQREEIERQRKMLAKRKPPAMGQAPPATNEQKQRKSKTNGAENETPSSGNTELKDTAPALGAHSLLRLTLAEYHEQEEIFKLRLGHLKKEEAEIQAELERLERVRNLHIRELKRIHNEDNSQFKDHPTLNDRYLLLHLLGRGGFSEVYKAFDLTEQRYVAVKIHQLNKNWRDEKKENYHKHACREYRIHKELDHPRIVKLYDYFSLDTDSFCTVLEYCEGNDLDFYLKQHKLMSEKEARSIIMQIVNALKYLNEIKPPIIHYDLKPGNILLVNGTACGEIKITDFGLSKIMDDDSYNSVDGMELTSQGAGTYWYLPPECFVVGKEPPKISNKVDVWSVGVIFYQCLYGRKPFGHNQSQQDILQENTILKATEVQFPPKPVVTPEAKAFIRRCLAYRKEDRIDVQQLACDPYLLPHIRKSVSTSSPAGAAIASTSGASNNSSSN
TGFBR1 (human), sequence (P36897 whole entry, looked up): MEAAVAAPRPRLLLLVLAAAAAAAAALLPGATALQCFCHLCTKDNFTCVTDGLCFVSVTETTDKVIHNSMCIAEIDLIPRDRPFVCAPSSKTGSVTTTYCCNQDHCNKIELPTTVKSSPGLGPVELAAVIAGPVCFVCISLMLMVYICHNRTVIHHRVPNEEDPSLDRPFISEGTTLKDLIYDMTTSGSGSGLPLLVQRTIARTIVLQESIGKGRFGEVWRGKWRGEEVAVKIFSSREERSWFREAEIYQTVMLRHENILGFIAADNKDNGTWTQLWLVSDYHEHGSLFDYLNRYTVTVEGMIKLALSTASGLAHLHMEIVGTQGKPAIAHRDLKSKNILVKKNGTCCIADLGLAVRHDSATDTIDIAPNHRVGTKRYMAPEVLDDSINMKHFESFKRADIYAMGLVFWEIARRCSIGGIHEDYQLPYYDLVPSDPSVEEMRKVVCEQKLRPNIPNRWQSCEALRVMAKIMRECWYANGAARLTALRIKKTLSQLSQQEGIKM
STK32B (human), sequence (Q9NY57 whole entry, looked up): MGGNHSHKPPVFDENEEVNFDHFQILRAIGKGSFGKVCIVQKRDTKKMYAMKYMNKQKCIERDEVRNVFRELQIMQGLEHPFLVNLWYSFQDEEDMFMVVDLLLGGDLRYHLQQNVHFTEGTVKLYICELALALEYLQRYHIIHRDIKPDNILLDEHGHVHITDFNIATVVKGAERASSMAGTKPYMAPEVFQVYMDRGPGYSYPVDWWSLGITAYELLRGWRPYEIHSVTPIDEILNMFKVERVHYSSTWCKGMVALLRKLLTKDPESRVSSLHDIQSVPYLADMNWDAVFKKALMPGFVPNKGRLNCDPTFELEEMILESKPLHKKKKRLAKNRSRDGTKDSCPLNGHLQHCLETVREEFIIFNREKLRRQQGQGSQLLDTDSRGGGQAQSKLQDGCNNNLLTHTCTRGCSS
MAP4K3 (human), sequence (Q8IVH8 whole entry, looked up): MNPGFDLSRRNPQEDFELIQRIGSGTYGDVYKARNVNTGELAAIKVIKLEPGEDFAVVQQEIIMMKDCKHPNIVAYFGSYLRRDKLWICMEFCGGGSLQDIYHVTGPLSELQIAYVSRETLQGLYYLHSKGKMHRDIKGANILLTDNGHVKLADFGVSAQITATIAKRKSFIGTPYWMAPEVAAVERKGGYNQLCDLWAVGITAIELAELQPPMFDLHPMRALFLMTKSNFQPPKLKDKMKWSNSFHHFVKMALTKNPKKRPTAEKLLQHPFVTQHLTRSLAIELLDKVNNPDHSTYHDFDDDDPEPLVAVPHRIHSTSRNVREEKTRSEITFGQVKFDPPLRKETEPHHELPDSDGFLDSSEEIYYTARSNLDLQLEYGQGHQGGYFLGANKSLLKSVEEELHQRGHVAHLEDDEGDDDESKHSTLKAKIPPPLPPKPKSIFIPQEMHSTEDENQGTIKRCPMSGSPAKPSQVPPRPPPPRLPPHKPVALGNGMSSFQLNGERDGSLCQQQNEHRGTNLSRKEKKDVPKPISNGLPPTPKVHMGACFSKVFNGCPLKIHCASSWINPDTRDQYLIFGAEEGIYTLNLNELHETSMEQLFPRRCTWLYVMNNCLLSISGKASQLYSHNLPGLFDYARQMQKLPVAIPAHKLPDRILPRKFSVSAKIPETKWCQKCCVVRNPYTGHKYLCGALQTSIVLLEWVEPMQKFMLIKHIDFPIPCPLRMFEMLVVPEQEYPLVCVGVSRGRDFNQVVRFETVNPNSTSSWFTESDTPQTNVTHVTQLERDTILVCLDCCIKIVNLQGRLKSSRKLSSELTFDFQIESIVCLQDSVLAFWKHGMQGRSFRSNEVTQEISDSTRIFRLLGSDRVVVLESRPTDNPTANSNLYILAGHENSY
PIM2 (human), sequence (Q9P1W9 whole entry, looked up): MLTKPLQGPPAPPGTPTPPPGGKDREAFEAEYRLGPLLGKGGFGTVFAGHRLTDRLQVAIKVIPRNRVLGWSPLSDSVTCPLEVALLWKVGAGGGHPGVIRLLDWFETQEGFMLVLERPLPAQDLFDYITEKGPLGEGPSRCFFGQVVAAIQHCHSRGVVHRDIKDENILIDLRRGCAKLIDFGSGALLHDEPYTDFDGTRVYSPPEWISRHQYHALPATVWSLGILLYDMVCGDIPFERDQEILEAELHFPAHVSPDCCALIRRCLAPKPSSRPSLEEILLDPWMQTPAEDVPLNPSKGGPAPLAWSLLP
PKMYT1 (human), sequence (Q99640 whole entry, looked up): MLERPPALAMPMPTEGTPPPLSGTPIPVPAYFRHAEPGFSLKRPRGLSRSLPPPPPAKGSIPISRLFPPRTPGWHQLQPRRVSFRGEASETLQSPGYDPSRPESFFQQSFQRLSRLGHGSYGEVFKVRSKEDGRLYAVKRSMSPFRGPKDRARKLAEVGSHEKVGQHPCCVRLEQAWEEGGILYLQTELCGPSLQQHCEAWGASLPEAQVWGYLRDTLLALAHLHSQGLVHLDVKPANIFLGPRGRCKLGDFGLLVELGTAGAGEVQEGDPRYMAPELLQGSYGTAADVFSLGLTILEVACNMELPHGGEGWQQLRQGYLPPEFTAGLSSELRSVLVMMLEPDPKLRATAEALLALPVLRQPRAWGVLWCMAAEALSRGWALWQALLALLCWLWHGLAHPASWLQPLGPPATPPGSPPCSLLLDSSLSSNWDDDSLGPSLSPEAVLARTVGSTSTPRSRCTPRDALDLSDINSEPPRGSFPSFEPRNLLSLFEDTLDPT
RET (human), sequence (P07949 whole entry, looked up): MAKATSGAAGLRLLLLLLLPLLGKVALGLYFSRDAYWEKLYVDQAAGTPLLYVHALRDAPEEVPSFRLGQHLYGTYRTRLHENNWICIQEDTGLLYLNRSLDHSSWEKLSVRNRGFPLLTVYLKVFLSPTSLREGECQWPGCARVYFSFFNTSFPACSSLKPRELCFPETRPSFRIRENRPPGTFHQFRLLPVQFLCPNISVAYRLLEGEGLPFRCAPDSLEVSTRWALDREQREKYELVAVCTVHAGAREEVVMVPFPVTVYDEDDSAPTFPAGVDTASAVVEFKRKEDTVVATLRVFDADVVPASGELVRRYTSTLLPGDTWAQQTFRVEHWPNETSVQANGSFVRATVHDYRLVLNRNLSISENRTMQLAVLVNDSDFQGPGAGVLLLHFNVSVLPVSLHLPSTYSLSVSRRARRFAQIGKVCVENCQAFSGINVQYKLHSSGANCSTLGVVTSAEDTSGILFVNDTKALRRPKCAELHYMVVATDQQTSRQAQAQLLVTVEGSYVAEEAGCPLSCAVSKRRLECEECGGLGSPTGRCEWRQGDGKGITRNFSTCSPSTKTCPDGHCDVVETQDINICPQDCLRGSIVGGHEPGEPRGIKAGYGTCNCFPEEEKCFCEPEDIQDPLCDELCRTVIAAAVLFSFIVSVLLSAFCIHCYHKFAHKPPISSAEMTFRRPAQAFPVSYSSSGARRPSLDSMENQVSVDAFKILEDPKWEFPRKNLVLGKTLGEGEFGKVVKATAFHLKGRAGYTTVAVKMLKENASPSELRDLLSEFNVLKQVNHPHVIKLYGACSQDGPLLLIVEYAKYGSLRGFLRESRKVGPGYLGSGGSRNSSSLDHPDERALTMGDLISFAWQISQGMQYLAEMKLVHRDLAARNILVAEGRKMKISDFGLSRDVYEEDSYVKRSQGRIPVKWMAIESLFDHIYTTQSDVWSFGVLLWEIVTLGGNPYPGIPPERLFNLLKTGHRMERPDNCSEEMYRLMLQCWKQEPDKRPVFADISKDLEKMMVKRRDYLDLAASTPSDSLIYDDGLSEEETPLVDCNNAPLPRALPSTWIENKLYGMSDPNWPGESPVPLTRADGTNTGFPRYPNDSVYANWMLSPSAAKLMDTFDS
ADCK4 (human), sequence (Q96D53 whole entry, looked up): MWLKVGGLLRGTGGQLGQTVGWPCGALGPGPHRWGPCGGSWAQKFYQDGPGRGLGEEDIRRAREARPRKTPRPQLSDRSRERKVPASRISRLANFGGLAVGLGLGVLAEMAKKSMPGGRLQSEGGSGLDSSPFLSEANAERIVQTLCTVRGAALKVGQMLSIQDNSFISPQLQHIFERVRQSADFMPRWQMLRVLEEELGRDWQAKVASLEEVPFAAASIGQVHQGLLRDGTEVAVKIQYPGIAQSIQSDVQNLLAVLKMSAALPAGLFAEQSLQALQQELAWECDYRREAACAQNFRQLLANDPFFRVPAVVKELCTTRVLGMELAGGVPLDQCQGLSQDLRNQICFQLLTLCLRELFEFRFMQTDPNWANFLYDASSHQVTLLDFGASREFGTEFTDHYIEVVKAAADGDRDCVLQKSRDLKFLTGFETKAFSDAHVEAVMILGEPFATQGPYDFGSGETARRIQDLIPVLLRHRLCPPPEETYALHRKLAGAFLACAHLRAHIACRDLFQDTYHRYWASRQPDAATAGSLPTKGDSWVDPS

## C=CC(=O)Nc1cc(NC(=O)c2ccc(C)c(NC(=O)c3ccno3)c2)cc(C(F)(F)F)c1
ADCK4 (human)
  kinase still bound, per cent of control: 97%
BMPR1B (human)
  kinase still bound, per cent of control: 100%
CAMK1G (human)
  kinase still bound, per cent of control: 91%
CDK15 (human)
  kinase still bound, per cent of control: 93%
CDK8 (human)
  kinase still bound, per cent of control: 100%
CDK9 (human)
  kinase still bound, per cent of control: 100%
CHEK2 (human)
  kinase still bound, per cent of control: 96%
CLK4 (human)
  kinase still bound, per cent of control: 100%
DAPK3 (human)
  kinase still bound, per cent of control: 96%
FER (human)
  kinase still bound, per cent of control: 100%
FGR (human)
  kinase still bound, per cent of control: 63%
FLT3 (human)
  kinase still bound, per cent of control: 100%
[1]
  kinase still bound, per cent of control: 82%
LCK (human)
  kinase still bound, per cent of control: 45%
MAP2K1 (human)
  kinase still bound, per cent of control: 87%
MAP2K4 (human)
  kinase still bound, per cent of control: 100%
MAP4K3 (human)
  kinase still bound, per cent of control: 87%
MAPK4 (human)
  kinase still bound, per cent of control: 100%
MAPK7 (human)
  kinase still bound, per cent of control: 92%
MKNK1 (human)
  kinase still bound, per cent of control: 100%
MYLK (human)
  kinase still bound, per cent of control: 100%
NEK5 (human)
  kinase still bound, per cent of control: 100%
NTRK1 (human)
  kinase still bound, per cent of control: 87%
PDGFRA (human)
  kinase still bound, per cent of control: 41%
PHKG2 (human)
  kinase still bound, per cent of control: 95%
PIM2 (human)
  kinase still bound, per cent of control: 96%
PIP5K1A (human)
  kinase still bound, per cent of control: 100%
PKMYT1 (human)
  kinase still bound, per cent of control: 83%
PLK1 (human)
  kinase still bound, per cent of control: 77%
PRKD2 (human)
  kinase still bound, per cent of control: 100%
PRKG1 (human)
  kinase still bound, per cent of control: 100%
RET (human)
  kinase still bound, per cent of control: 96%
SRMS (human)
  kinase still bound, per cent of control: 77%
STK16 (human)
  kinase still bound, per cent of control: 100%
STK32B (human)
  kinase still bound, per cent of control: 100%
STK32C (human)
  kinase still bound, per cent of control: 100%
TEK (human)
  kinase still bound, per cent of control: 100%
TESK1 (human)
  kinase still bound, per cent of control: 100%
TGFBR1 (human)
  kinase still bound, per cent of control: 96%
TLK2 (human)
  kinase still bound, per cent of control: 100%
TXK (human)
  kinase still bound, per cent of control: 93%

## O=C1Nc2ccc(I)cc2/C1=C/c1cc(Br)c(O)c(Br)c1
ADCK4 (human)
  kinase still bound, per cent of control: 65%
BMPR1B (human)
  kinase still bound, per cent of control: 27%
CAMK1G (human)
  kinase still bound, per cent of control: 44%
CDK15 (human)
  kinase still bound, per cent of control: 100%
CDK8 (human)
  kinase still bound, per cent of control: 62%
CDK9 (human)
  kinase still bound, per cent of control: 93%
CHEK2 (human)
  kinase still bound, per cent of control: 12%
CLK4 (human)
  kinase still bound, per cent of control: 36%
DAPK3 (human)
  kinase still bound, per cent of control: 2.6%
FER (human)
  kinase still bound, per cent of control: 100%
FGR (human)
  kinase still bound, per cent of control: 86%
FLT3 (human)
  kinase still bound, per cent of control: 3.6%
[1]
  kinase still bound, per cent of control: 12%
LCK (human)
  kinase still bound, per cent of control: 38%
MAP2K1 (human)
  kinase still bound, per cent of control: 68%
MAP2K4 (human)
  kinase still bound, per cent of control: 3.4%
MAP4K3 (human)
  kinase still bound, per cent of control: 100%
MAPK4 (human)
  kinase still bound, per cent of control: 100%
MAPK7 (human)
  kinase still bound, per cent of control: 5%
MKNK1 (human)
  kinase still bound, per cent of control: 83%
MYLK (human)
  kinase still bound, per cent of control: 16%
NEK5 (human)
  kinase still bound, per cent of control: 87%
NTRK1 (human)
  kinase still bound, per cent of control: 82%
PDGFRA (human)
  kinase still bound, per cent of control: 22%
PHKG2 (human)
  kinase still bound, per cent of control: 92%
PIM2 (human)
  kinase still bound, per cent of control: 2.1%
PIP5K1A (human)
  kinase still bound, per cent of control: 19%
PKMYT1 (human)
  kinase still bound, per cent of control: 79%
PLK1 (human)
  kinase still bound, per cent of control: 100%
PRKD2 (human)
  kinase still bound, per cent of control: 100%
PRKG1 (human)
  kinase still bound, per cent of control: 100%
RET (human)
  kinase still bound, per cent of control: 100%
SRMS (human)
  kinase still bound, per cent of control: 65%
STK16 (human)
  kinase still bound, per cent of control: 90%
STK32B (human)
  kinase still bound, per cent of control: 100%
STK32C (human)
  kinase still bound, per cent of control: 98%
TEK (human)
  kinase still bound, per cent of control: 100%
TESK1 (human)
  kinase still bound, per cent of control: 100%
TGFBR1 (human)
  kinase still bound, per cent of control: 10%
TLK2 (human)
  kinase still bound, per cent of control: 83%
TXK (human)
  kinase still bound, per cent of control: 100%

## Cc1ccc(C(=O)Nc2cccc(C(F)(F)F)c2)cc1Nc1cncc(C(N)=O)c1
ADCK4 (human)
  kinase still bound, per cent of control: 100%
BMPR1B (human)
  kinase still bound, per cent of control: 100%
CAMK1G (human)
  kinase still bound, per cent of control: 100%
CDK15 (human)
  kinase still bound, per cent of control: 100%
CDK8 (human)
  kinase still bound, per cent of control: 100%
CDK9 (human)
  kinase still bound, per cent of control: 100%
CHEK2 (human)
  kinase still bound, per cent of control: 100%
CLK4 (human)
  kinase still bound, per cent of control: 100%
DAPK3 (human)
  kinase still bound, per cent of control: 100%
FER (human)
  kinase still bound, per cent of control: 100%
FGR (human)
  kinase still bound, per cent of control: 100%
FLT3 (human)
  kinase still bound, per cent of control: 100%
[1]
  kinase still bound, per cent of control: 100%
LCK (human)
  kinase still bound, per cent of control: 1.9%
MAP2K1 (human)
  kinase still bound, per cent of control: 100%
MAP2K4 (human)
  kinase still bound, per cent of control: 100%
MAP4K3 (human)
  kinase still bound, per cent of control: 100%
MAPK4 (human)
  kinase still bound, per cent of control: 100%
MAPK7 (human)
  kinase still bound, per cent of control: 100%
MKNK1 (human)
  kinase still bound, per cent of control: 100%
MYLK (human)
  kinase still bound, per cent of control: 100%
NEK5 (human)
  kinase still bound, per cent of control: 100%
NTRK1 (human)
  kinase still bound, per cent of control: 100%
PDGFRA (human)
  kinase still bound, per cent of control: 0.2%
PHKG2 (human)
  kinase still bound, per cent of control: 100%
PIM2 (human)
  kinase still bound, per cent of control: 100%
PIP5K1A (human)
  kinase still bound, per cent of control: 100%
PKMYT1 (human)
  kinase still bound, per cent of control: 100%
PLK1 (human)
  kinase still bound, per cent of control: 100%
PRKD2 (human)
  kinase still bound, per cent of control: 100%
PRKG1 (human)
  kinase still bound, per cent of control: 100%
RET (human)
  kinase still bound, per cent of control: 100%
SRMS (human)
  kinase still bound, per cent of control: 100%
STK16 (human)
  kinase still bound, per cent of control: 100%
STK32B (human)
  kinase still bound, per cent of control: 100%
STK32C (human)
  kinase still bound, per cent of control: 100%
TEK (human)
  kinase still bound, per cent of control: 100%
TESK1 (human)
  kinase still bound, per cent of control: 100%
TGFBR1 (human)
  kinase still bound, per cent of control: 100%
TLK2 (human)
  kinase still bound, per cent of control: 100%
TXK (human)
  kinase still bound, per cent of control: 100%
